Experimental findings from patent US12692232B2, “Indole carboxamide compound, preparation therefor and use thereof” (NANJING RUISHUNING MEDICAL TECHNOLOGY CO., LTD., priority 2021, dated 2026) are described below.

Data set [1] is described as follows: Stability at high temperature and high humidity (residual content). It is filed as physicochemical. The method, then: The stability of compounds 1-1, 2-1 and the indole analogue 3-[(1-methyl-1H-indole-2-carbonyl) amino]propionic acid disclosed in CN2019107285315 was tested by experiments at high temperature and high humidity. The compounds were placed in 24-well plates, spread as a thin layer with a thickness of no more than 5 mm and placed in an oven at 60° C. for 10 days. Observation of appearance, TLC identification and determination of absorbance were carried out on the 5th day and the 10th day, respectively, in order to compare with the samples on the 0th day. An amount of compounds were taken into tightly closed brown colored penicillin bottles (the compounds were spread as a thin layer with a thickness of no more than 5 mm) and then placed into a tightly closed container with saturated NaCl solution and left at room temperature away from light for 10 days. Observation of appearance, TLC identification and determination of absorbance were carried out on the 5th day and the 10th day, respectively, in order to compare with the samples on the 0th day.

For data set [2], the system named is lipopolysaccharide (LPS)-induced mouse model of sepsis. Kind of data set: LPS-induced mouse model of sepsis, survival analysis. It counts as in vivo. To be noted: for average survival time: LPS 40 mg/kg i.p., LPS group 15.4±2.9; for time after which the mice began to die: LPS 40 mg/kg i.p. 30 minutes later, LPS group about 12 hours. The method, then: A lipopolysaccharide (LPS)-induced mouse model of sepsis was used to determine the preventive and therapeutic effect of the compounds of the present invention (as exemplified by compounds 1-1 and 2-1 obtained in Examples 1 and 3) against sepsis. The method was as follows:
Experimental animals: 60 male C57BL/6J mice aged 6-8 weeks. The experimental animals were housed in an environment with room temperature of 25±2° C., 12 hours dark/12 hours light, and fed with conventional feed.
Survival analysis experiment: the mice were randomly divided into 6 groups of 10 mice each, namely, i) a solvent control group: each animal was administered 0.9% saline; ii) a sepsis model group (LPS group): each animal was injected intraperitoneally with LPS at a dose of 40 mg/kg; iii) a treatment group of medium-dose compound 1-1 (LPS+25 mg/kg of compound 1-1 obtained in Example 1): each animal was administered compound 1-1 by gavage at a dose of 25 mg/kg, followed by intraperitoneal injection of LPS at a dose of 40 mg/kg 30 minutes later; iv) a treatment group of high-dose compound 1-1 (LPS+50 mg/kg of compound 1-1 obtained in Example 1): each animal was administered compound 1-1 by gavage at a dose of 50 mg/kg, followed by intraperitoneal injection of LPS at a dose of 40 mg/kg 30 minutes later; v) a treatment group of high-dose compound 2-1 (LPS+50 mg/kg compound 2-1 obtained in Example 2): each animal was administered compound 2-1 by gavage at a dose of 50 mg/kg, followed by intraperitoneal injection of LPS at a dose of 40 mg/kg 30 minutes later; vi) a treatment group of medium-dose indole analogue 3-[(1-methyl-1H-indole-2-carbonyl)amino]propionic acid disclosed in CN2019107285315 (LPS+25 mg/kg of indole analogue 3-[(1-methyl-1H-indole-2-carbonyl)amino]propionic acid disclosed in CN2019107285315). The survival of the mice in each group was monitored, the time of death of the mice was recorded, and the average survival time of the animals in each group was calculated.

The mark [3] stands for this setting: high humidity environment (saturated NaCl, room temperature, away from light), after 5 days.
Where [4] appears, read: high humidity environment (saturated NaCl, room temperature, away from light), after 10 days.
Where [5] appears, read: high temperature environment (oven at 60° C.), after 5 days.
The mark [6] stands for this setting: high temperature environment (oven at 60° C.), after 10 days.

In the case of `Cn1c(C(=O)NCCC(=O)O)cc2ccccc21` [3-[(1-methyl-1H-indole-2-carbonyl)amino]propionic acid, reference compound], the residual content in data set [1] (setting [3]) is given as 29.5±0.1%; in data set [1] (setting [4]), 8.8±0.1%; in data set [1] (setting [5]), 23.1±0.1%; in data set [1] (setting [6]), 4.2±0.1%. The compound also came in with an average survival time in data set [2] (25 mg/kg) of 19.8 ± 3.1 h.

As for `CC(=O)OCCCNC(=O)c1c(C=O)c2ccccc2n1C` [compound 1-1, propyl 3-[(3-formyl-1-methyl-1H-indole-2-carbonyl)amino]acetate], the residual content worked out at 93.5±0.4% in data set [1] (setting [3]), 90.7±0.3% in data set [1] (setting [4]), 95.4±08% in data set [1] (setting [5]) and 94.2±0.6% in data set [1] (setting [6]). Also, the “time after which the mice began to die” value worked out at 20 h in data set [2] (25 mg/kg) and 28 h in data set [2] (50 mg/kg). The average survival time in data set [2] (25 mg/kg) worked out at 24.8 ± 3.9 h; in data set [2] (50 mg/kg), 26.4 ± 4.3 h.

As for `Cn1c(C(=O)NCCCOC(=O)c2ccccc2)c(C=O)c2ccccc21` [compound 2-1], the residual content came to 94.2±0.3% in data set [1] (setting [3]), 90.1±0.8% in data set [1] (setting [4]), 93.6±0.6% in data set [1] (setting [5]) and 91.7±0.5% in data set [1] (setting [6]). Moreover, in data set [2] (50 mg/kg), the “time after which the mice began to die” value was 22 h. In data set [2] (50 mg/kg), this compound returned an average survival time of 24.2 ± 4.9 h.
